For one series, the system named is E. coli. In words: Zeta potential of E. coli in the presence of defensins. The series is classed as cell-based, Escherichia coli. The conditions noted are these: for E. coli surface charge neutralizing ability (change in zeta potential): 5 μM defensin, except HD5 2.5 μM and HBD3 0.5 μM, three independent experiments; for concentration found to neutralize the E. coli surface charge almost completely: zeta potential of E. coli. Here is the method:
Zeta potential of the E. coli in the presence of human defensins was measured as described previously. The concentration of peptide used was 5μM, except for HBD3 and HD5. […] Cells were treated with 5 μM defensin and zeta potential was measured, except in the cases of HD5 and HBD3. In the cases of HD5 and HBD3, zeta potential was measured after treating with 2.5 μM and 0.5 μM of peptides, respectively. Control represent zeta potential of E. coli in the absence of any peptide. Error bars represents standard deviations of three independent experiments.

Series [1] deals with E. coli inner membrane. Briefly: SYTOX green uptake assay using fluorescent spectroscopy. The conditions noted are these: 2 × MBC of defensins, 200 nM SYTOX green, 5 × 10^6 CFU/mL, 10 mM phosphate buffer. In kind it is cell-based, Escherichia coli. On the procedure:
Effect of defensins on the E. coli inner membrane was assessed by measuring the extent of intracellular accumulation of SYTOX green. Cells from mid-log-phase were collected, washed and resuspended in 10 mM phosphate buffer. The final density was adjusted to 5 × 10^6 CFU/mL. […] Enhancement in SYTOX green fluorescence, a direct measure of the extent of membrane permeabilization was monitored in a Flurolog 3–22 fluorescence spectrophotometer (Jobin Yvon, USA). Excitation and emission wavelengths used were 503 nm and 523 nm, respectively.  Fig 4 Accumulation of SYTOX green in human defensins treated E. coli. […] The arrows indicate the point at which defensins were added.

A short description of series [2]: Transmission electron microscopy of defensin aggregates. The conditions noted are these: 20 μM defensin in 10 mM sodium phosphate buffer pH 7.4, uranyl acetate stain, TEM. In kind it is physicochemical. On the procedure: Defensins were diluted to a concentration of 20 μM in 10 mM sodium phosphate buffer (pH 7.4) from their respective stocks solutions (dissolved in Milli-Q water). From these solutions, 5 μL was deposited on a carbon-coated Formvar 200-mesh copper grid. The grid was left undisturbed for about 5 minutes; excess buffer was then removed using Whatman filter paper. Grids were stained with uranyl acetate (2% w/v) for 45 seconds. Excess stain was removed and grids were used for recording the images. Images were recorded using JAM-2100 LaB6 transmission electron microscope (JEOL, Tokyo, Japan) at 100 kV.

Series [3] is described as follows: Calcein release assay from lipid vesicles. The conditions noted are these: calcein entrapped POPC:POPG (1:1) LUVs, 25 μM, 10 mM sodium phosphate buffer pH 7.4, increasing defensin concentrations; 1% Triton X-100 = 100%. Here is the method:
Large unilamellar vesicles (LUVs) composed of POPC:POPG (1:1) containing 50 mM calcein were prepared by lipid extrusion method. Desired amounts of lipids from their respective chloroform stocks were taken into a glass tube and dried under a nitrogen stream to form a thin uniform lipid film. The film was further dried under vacuum for 5 to 6 hours to remove trace amounts of organic solvents. After this step, the lipid film was hydrated with 10 mM sodium phosphate buffer (pH 7.4) containing 50 mM calcein at 4°C for 12 to 15 hours. Hydrated lipid films were then vortexed and passed through polycarbonate membrane having a pore diameter of 100 nm using a mini-extruder (Avanti Polar Lipid Inc.). Free calcein was removed by passing through a Sephadex G50 column. Calcein entrapped vesicles (25 μM) were then treated with increasing concentrations of defensins and extent of calcein released was measured in a Fluorolog 3–22 fluorescence spectrophotometer (Jobin Yvon, USA). Excitation and emission wavelengths used were 485 and 515 nm, respectively. 1% Triton X-100 was used for complete release of calcein.  Fig 5 Effect of human defensins on POPC:POPG (1:1) vesicles. Calcein entrapped POPC: POPG vesicles (25 μM) were treated with increasing concentrations of human defensins and percentage of calcein released was calculated. Calcein released by 1% Triton X-100 was taken as 100%.

In another series the test system is E. coli MG1655. To be noted: cited from earlier work. The text has this: Table 2 Minimum Bactericidal Concentration (MBC) of human defensins against E. coli MG1655. | column: Minimum bactericidal concentration in μM^a
The test system of series [4] is E. coli inner membrane. In words: Time-lapse fluorescence confocal microscopy (SYTOX green / FM4-64). In kind it is cell-based, Escherichia coli. The conditions noted are these: for Intracellular accumulation of SYTOX green (E. coli inner membrane permeabilization): sub-lethal concentrations: HBD1 3 μM, HBD2 3 μM, HBD3 1 μM, HBD4 3 μM, HNP3 8 μM, HNP4 4 μM, HD5 2.5 μM, HD6 5 μM, 10^6 CFU/mL, 10 mM sodium phosphate buffer pH 7.4; for Intracellular accumulation of SYTOX green (E. coli inner membrane permeabilization) / time at which SYTOX green accumulation is evident: 5 nM SYTOX green; for time at which SYTOX green accumulation is evident: sub-lethal defensin concentrations, time-lapse confocal microscopy. Here is the method:
Effect of defensins on the E. coli inner membrane was examined using time-lapse confocal fluorescence microscopy. The assay was carried out as follows. Bacteria from the mid-log-phase was collected and resuspended (final density was adjusted to 10^6 CFU/mL) in 10 mM sodium phosphate buffer (pH 7.4). Cells were then treated with 3 μM FM4-64 for 20 minutes at room temperature to stain the inner membrane. FM4-64 is a lipophilic dye which stains the bacterial inner membrane. Excess dye was removed by centrifuging. The FM4-64 stained cells were then treated with sub-lethal concentrations of defensins in presence of 5 nM of SYTOX green. […] Cells were immediately transferred to chambered slides and images were recorded using 100X oil immersion objective on a Leica Ultraspectral microscope SP8 (Leica Microsystems). Argon 488 and HeNe 561 lasers were used to excite SYTOX green and FM4-64, respectively. Signals ranging from 510 to 560 nm and 600 to 740 nm were collected for SYTOX green and FM4-64, respectively. Images were processed using LAS-AFver3.1.3 (Leica Microsystems).

Series [5] relates to E. coli inner membrane. The conditions noted are these: ref Wang et al. [55]; cited from earlier work. On the procedure: Recent findings indicate HD5 exerts its activity against the E. coli by localizing to bacterial cytoplasm and possibly interacting with DNA [39]. In a very recent study, Wang et al., have shown that HD5 permeabilizes the E. coli inner membrane. However, prolonged incubation (~40 minutes) was required t ...

[6] abbreviates: ref Krishnakumari et al. 2013 [44].

Entries after “also recorded” stand apart in the source; their conditions may differ. Read-outs that look alike come from different tables or passages of the source. Peptide text beside a SMILES is read from it.

In the case of “AFTC^1HC^2RRSC^3YSTEYSYGTC^2TVMGINHRFC^3C^1L (bicyclic or more) [HD6]”, the “E. coli surface charge neutralizing ability (change in zeta potential)” value in the series on E. coli was “neutralizes the E. coli surface charge more efficiently than HBD4 (+7), HBD1 (+ 4) and HNP3 (+2)”. Also, the “Damage to the E. coli inner membrane (SYTOX green accumulation, time-lapse microscopy and fluorescent spectroscopy)” value (“Damage to the E. coli inner membrane” below) in the series on E. coli inner membrane [1] is “do not cause extensive damage to the E. coli inner membrane”. Further, the “Morphology of self-assembled aggregates (electron micrographs)” value in series [2] is recorded as “distinctive fibrillar morphology”. The “Permeabilization of lipid vesicles (calcein release)” value (from here on “Permeabilization … (calcein release)”) in series [3] is recorded as “do not permeabilize membranes”.

“ELDRIC^1GYGTARC^2RKKC^3RSQEYRIGRC^2PNTYAC^1C^3LRKWDESLLNRTKP (bicyclic or more) [HBD4, human β-defensin, three disulfide bonds, purchased from Peptides International]”: in the series with E. coli MG1655 (ref Sharma and Nagaraj 2012 [45]), the Minimum bactericidal concentration is 5 µM. In series [3], the “Permeabilization … (calcein release)” value is given as “does not permeabilize PC:PG vesicles”. Also, in the series with E. coli inner membrane [4] (3 μM FM4-64, sub-lethal defensin concentration (HBD4 3 μM)), the “Morphological features of FM4-64 stained E. coli inner membrane” value was “FM4-64 staining shows considerable diffusion into cytoplasm”.

Turning to “DHYNC^1VSSGGQC^2LYSAC^3PIFTKIQGTC^2YRGKAKC^1C^3K (bicyclic or more) [HBD1, human β-defensin, three disulfide bonds, purchased from Peptides International]”, the Minimum bactericidal concentration in the series on E. coli MG1655 (setting [6]) was 8 µM. In the series on E. coli, the “E. coli surface charge neutralizing ability (change in zeta potential)” value was “poor surface charge neutralizing ability”. Further, in the series on E. coli inner membrane [1], the “Damage to the E. coli inner membrane” value was “do not cause extensive damage to the E. coli inner membrane”. Further, the “Permeabilization … (calcein release)” value in series [3] is given as “do not permeabilize membranes”. For the same molecule, in the series with E. coli inner membrane [4], the “Intracellular accumulation of SYTOX green (E. coli inner membrane permeabilization)” value (“Intracellular accumulation” below) is “faint accumulation of SYTOX green” and the “time at which SYTOX green accumulation is evident” value is given as ~ 20 min.

`CC[C@H](C)[C@@H]1NC(=O)[C@H](CC(C)C)NC(=O)[C@@H]2CSSC[C@@H]3NC(=O)[C@H](CO)NC(=O)[C@@H](NC(=O)[C@@H](N)C(C)C)CSSC[C@@H](C(=O)N[C@H](C(=O)N[C@@H](CCCNC(=N)N)C(=O)N[C@H](C(=O)O)C(C)C)[C@@H](C)O)NC(=O)[C@H](CSSC[C@H](NC(=O)[C@H](Cc4ccccc4)NC(=O)[C@H](C(C)C)NC(=O)[C@H](CC(C)C)NC(=O)[C@H](CCCNC(=N)N)NC3=O)C(=O)N[C@@H](CCCNC(=N)N)C(=O)N[C@@H](CCCNC(=N)N)C(=O)N[C@@H]([C@@H](C)O)C(=O)N[C@@H](CCC(=O)O)C(=O)N[C@@H](CC(C)C)C(=O)N[C@@H](CCCNC(=N)N)C(=O)N[C@@H](C(C)C)C(=O)NCC(=O)N[C@@H](CC(N)=O)C(=O)N2)NC(=O)[C@H](Cc2ccc(O)cc2)NC(=O)[C@H]([C@@H](C)O)NC(=O)[C@H](Cc2ccccc2)NC(=O)[C@H](CO)NC(=O)[C@H](C(C)C)NC(=O)CNC(=O)CNC1=O` [HNP4] (HELM PEPTIDE1{V.C.S.C.R.L.V.F.C.R.R.T.E.L.R.V.G.N.C.L.I.G.G.V.S.F.T.Y.C.C.T.R.V}$PEPTIDE1,PEPTIDE1,2:R3-30:R3|PEPTIDE1,PEPTIDE1,4:R3-19:R3|PEPTIDE1,PEPTIDE1,9:R3-29:R3$$$V2.0; N-terminus and C-terminus assumed): in the series with E. coli inner membrane [4], the “Intracellular accumulation” value is on record as “cytoplasmic accumulation of SYTOX green is evident” and the “time at which SYTOX green accumulation is evident” value is 11 min.

Regarding `CC[C@H](C)[C@@H]1NC(=O)[C@H](CCC(=O)O)NC(=O)[C@@H]2CSSC[C@@H]3NC(=O)[C@H](Cc4ccc(O)cc4)NC(=O)[C@@H](NC(=O)[C@@H](NC(=O)[C@H](C)N)[C@@H](C)O)CSSC[C@@H](C(=O)N[C@@H](CCCNC(=N)N)C(=O)O)NC(=O)[C@H](CSSC[C@H](NC(=O)[C@H](CCCNC(=N)N)NC(=O)CNC(=O)[C@H]([C@@H](C)O)NC(=O)[C@H](CCCNC(=N)N)NC3=O)C(=O)N[C@@H](C)C(=O)N[C@@H]([C@@H](C)O)C(=O)N[C@@H](CCCNC(=N)N)C(=O)N[C@@H](CCC(=O)O)C(=O)N[C@@H](CO)C(=O)N[C@@H](CC(C)C)C(=O)N[C@@H](CO)C(=O)NCC(=O)N[C@@H](C(C)C)C(=O)N2)NC(=O)[C@H](CC(C)C)NC(=O)[C@H](CCCNC(=N)N)NC(=O)[C@H](Cc2ccc(O)cc2)NC(=O)[C@H](CC(C)C)NC(=O)[C@H](CCCNC(=N)N)NC(=O)CNC(=O)[C@H](CO)NC1=O` [HD5] (HELM PEPTIDE1{A.T.C.Y.C.R.T.G.R.C.A.T.R.E.S.L.S.G.V.C.E.I.S.G.R.L.Y.R.L.C.C.R}$PEPTIDE1,PEPTIDE1,3:R3-31:R3|PEPTIDE1,PEPTIDE1,5:R3-20:R3|PEPTIDE1,PEPTIDE1,10:R3-30:R3$$$V2.0; N-terminus and C-terminus assumed), in the series with E. coli, the “E. coli surface charge neutralizing ability (change in zeta potential)” value is “neutralizes the E. coli surface charge at much lower concentration than HNP4” and the “concentration found to neutralize the E. coli surface charge almost completely” value was 2.5 µM. For the same molecule, the “Damage to the E. coli inner membrane” value in the series on E. coli inner membrane [1] is listed as “do not cause extensive damage to the E. coli inner membrane”. In the series with E. coli inner membrane [5], the “incubation required to observe E. coli inner membrane perturbation” value is ~ 40 minutes. In series [2], the “Morphology of self-assembled aggregates (electron micrographs)” value was “rod-like structures”. Moreover, the “Permeabilization … (calcein release)” value in series [3] is recorded as “do not permeabilize membranes”. Further, in the series with E. coli inner membrane [4], the “Intracellular accumulation” value is listed as “does not permeabilize the E. coli inner membrane; also recorded: faint localization of SYTOX green” and the “time at which SYTOX green accumulation is evident” value came to 30 min.

Take “GIINTLQKYYC^1RVRGGRC^2AVLSC^3LPKEEQIGKC^2STRGRKC^1C^3RRKK (bicyclic or more) [HBD3, human β-defensin, three disulfide bonds, purchased from Peptides International]”: the Minimum bactericidal concentration with E. coli MG1655 (setting [6]) is 2 µM. In the series with E. coli, the “E. coli surface charge neutralizing ability (change in zeta potential)” value is “most efficient bacterial surface charge neutralizing ability” and the “concentration found to neutralize the E. coli surface charge almost completely” value stood at 0.5 µM.

Take “GIGDPVTC^1LKSGAIC^2HPVFC^3PRRYKQIGTC^2GLPGTKC^1C^3KKP (bicyclic or more) [HBD2, human β-defensin, three disulfide bonds, purchased from Peptides International]”: the Minimum bactericidal concentration in the series with E. coli MG1655 (setting [6]) is 8 µM.

The values are drawn from publication PMC5397029, “Variations in the interaction of human defensins with Escherichia coli: Possible implications in bacterial killing” (PLoS ONE, 2017).
